pIC50: −log10 of the molar value. Where two headings read alike, the source gives them in different places.
What was measured:
[1] = test system: H3K36me3 in A549 cells; assay: In-Cell Western (ICW) assay of SETD2 inhibitors (A549 assay); type: cell-based, human; settings: A549 cells, read-out: SETD2 A549
Outline: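 A549 cells seeded at 4,000/well onto compound and incubated 3 days at 37° C. Methanol-fixed cells stained overnight at 4° C with anti-H3K36me3 (1:1000), then IRDye 800CW secondary with DRAQ5 DNA counterstain. Plates read by Licor imaging at 700 and 800 channels.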

[2] = target: T1, SETD2(1434-1711) (Homo sapiens, UniProt Q9BYW2); assay: SETD2 (1434-1711) assay; type: biochemical; settings: read-out: SETD2 (1434-1711)
T1 construct: SETD2 (1434-1711) Assay; catalogue N/A
T1 sequence (Q9BYW2 1434-1711): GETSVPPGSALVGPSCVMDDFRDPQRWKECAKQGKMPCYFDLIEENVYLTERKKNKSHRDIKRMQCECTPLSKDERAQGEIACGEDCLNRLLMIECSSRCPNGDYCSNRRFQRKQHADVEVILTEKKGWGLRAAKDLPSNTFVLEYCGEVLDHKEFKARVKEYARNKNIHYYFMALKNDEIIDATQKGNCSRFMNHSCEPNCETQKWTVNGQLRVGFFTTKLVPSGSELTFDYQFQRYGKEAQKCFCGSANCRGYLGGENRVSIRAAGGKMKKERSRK

## COc1ccnc(C(NC(=O)c2cc3c(F)ccc(C)c3[nH]2)C2CC2)c1C (stereo not shown) [compound 269]
[1]; Homo sapiens
  pIC50: 6.15
[2]
  pIC50: 7.00

## Cc1cccc2cc(C(=O)NC3C(=O)NCCc4ccccc43)[nH]c12 (stereo not shown) [compound 482]
[1]
  pIC50: 4.99
[2]
  pIC50: 5.66

## Cc1ccc(F)c2cc(C(=O)Nc3cccc(N4CCC(CCCN)CC4)c3)[nH]c12 [compound 150]
[1]; Homo sapiens
  pIC50: 6.52
[2]
  pIC50: 7.70

## Cc1cc(C(=O)N[C@@H]2CC[C@H]2N)cnc1C(NC(=O)c1cc2cccc(C)c2[nH]1)C1CC1 (stereo partly shown) [compound 455]
[1]; Homo sapiens
  pIC50: 5.23
[2]
  pIC50: 6.40

## Cc1ccc(F)c2cc(C(=O)NC3CCCC(N4CCN(C5CCOC5)C(=O)C4)C3)[nH]c12 (stereo not shown) [compound 973]
[1]
  pIC50: 6.70
[2]
  pIC50: 7.40

## CCN(CC)CCS(=O)(=O)N1CCN(c2cccc(NC(=O)c3cc4cccc(C)c4[nH]3)c2)CC1 [compound 405]
[1]
  pIC50: 5.55
[2]
  pIC50: 6.40

## Cc1cccnc1C(Cc1cn(CC2CC2)cn1)NC(=O)c1cc2c(F)ccc(C)c2[nH]1 (stereo not shown) [compound 356]
[1]; Homo sapiens
  pIC50: < 5.70
[2]
  pIC50: 6.22

## Cc1ccc(F)c2cc(C(=O)Nc3cccc(-n4cnc(CN(C)C)n4)c3)[nH]c12 [compound 276]
[1]; Homo sapiens
  pIC50: 6.05
[2]
  pIC50: 7.05

## CC(=O)N1CCN(c2cccc(NC(=O)c3cc4c(F)ccc(Br)c4[nH]3)c2)CC1 [compound 84]
[1]
  pIC50: 6.70
[2]
  pIC50: 7.40

## CC(=O)N1CC2CC1CN2C1CCCC(NC(=O)c2cc3c(F)ccc(C)c3[nH]2)C1 (stereo not shown) [compound 937]
[1]
  pIC50: < 5.70
[2]
  pIC50: 5.17

## Cc1ccc(F)c2cc(C(=O)Nc3cccc(N4CCC(N)CC4)c3)[nH]c12 [compound 192]
[1]; Homo sapiens
  pIC50: 6.40
[2]
  pIC50: 7.52

## Cc1ccc(F)c2cc(C(=O)Nc3cccc(N4CCN(C(C)C)C(C)C4)c3)[nH]c12 (stereo not shown) [compound 205]
[1]
  pIC50: 6.40
[2]
  pIC50: 7.52

## Cc1ccc(F)c2cc(C(=O)NC3CCCC(N4CCN(C(=O)CO)C(C(F)(F)F)C4)C3)[nH]c12 (stereo not shown) [compound 1176]
[1]
  pIC50: < 5.70
[2]
  pIC50: 5.54

## Cc1cccnc1C(CCCC(=O)N1CCOCC1)NC(=O)c1cc2cccc(C)c2[nH]1 (stereo not shown) [compound 494]
[1]
  pIC50: 4.88
[2]
  pIC50: 5.22

## Cc1ccc(N2CCOCC2)cc1NC(=O)c1cc2cccc(C)c2[nH]1 [compound 490]
[1]
  pIC50: 4.92
[2]
  pIC50: 5.19

## Cc1ccc(F)c2cc(C(=O)NC3CCCC(N4CCC(N(C)C(=O)C(C)C)C4)C3)[nH]c12 (stereo not shown) [compound 969]
[1]
  pIC50: 7.00
[2]
  pIC50: 8.40

## Cc1ccc(F)c2cc(C(=O)Nc3cc(F)cc(C4CCN(C5CCN(C)C5=O)C4)c3)[nH]c12 (stereo not shown) [compound 230]
[1]
  pIC50: 6.30
[2]
  pIC50: 7.40

## CC[C@@H]1CN([C@@H]2CCC[C@@H](NC(=O)c3cc4c(F)ccc(C)c4[nH]3)C2)CCN1C(C)=O [compound 1095]
[1]; Homo sapiens
  pIC50: < 5.70
[2]
  pIC50: 6.22

## Cc1ccc(F)c2cc(C(=O)Nc3cccc(N4CCC(CN(C)C)CC4)c3)[nH]c12 [compound 117]
[1]
  pIC50: 6.70
[2]
  pIC50: 7.70

## CC(=O)N1CCC(C(N)=O)(c2cc(F)cc(NC(=O)c3cc4c(F)ccc(C)c4[nH]3)c2)CC1 [compound 267]
[1]; Homo sapiens
  pIC50: 6.15
[2]
  pIC50: 8.00

## Cc1ccc(F)c2cc(C(=O)N[C@@H]3CCC[C@@H](N4CCN(C)C(=O)C4C)C3)[nH]c12 (stereo partly shown) [compound 885]
[1]; Homo sapiens
  pIC50: < 5.70
[2]
  pIC50: 5.12

## Cc1ccc(F)c2cc(C(=O)Nc3cccc4c3cnn4[C@H]3CC[C@H](N(C)C)CC3)[nH]c12 [Cpd. No. 213, N-(1-((1r,4r)-4-(dimethylamino)cyclohexyl)-1H-indazol-4-yl)-4-fluoro-7-methyl-1H-indole-2-carboxamide]
[1]; Homo sapiens
  pIC50: 6.30
[2]
  pIC50: 8.15

## COc1cccc(CNCC(O)COc2cnc(C(NC(=O)c3cc4cccc(C)c4[nH]3)C3CC3)c(C)c2)c1 (stereo not shown) [compound 461]
[1]
  pIC50: 5.20
[2]
  pIC50: 6.30

## Cc1ccc(F)c2cc(C(=O)Nc3cccc(-c4cccc5nccn45)c3)[nH]c12 [compound 272]
[1]; Homo sapiens
  pIC50: 6.10
[2]
  pIC50: 7.00

## Cc1ccc(F)c2cc(C(=O)Nc3cncc(N4CCN(C)CC4)c3)[nH]c12 [compound 410]
[1]
  pIC50: 5.52
[2]
  pIC50: 6.15

## COC(=O)N1CCN(c2cccc(NC(=O)c3cc4c(F)ccc(C)c4[nH]3)c2)CC1 [compound 121]
[1]
  pIC50: 6.52
[2]
  pIC50: 7.30

## Cc1ccc(F)c2cc(C(=O)Nc3cccc(N4CC5CC4CN5C)c3)[nH]c12 (stereo not shown) [compound 348]
[1]
  pIC50: 5.72
[2]
  pIC50: 7.15

## CCc1cc(NC(=O)c2cc3c(F)ccc(C)c3[nH]2)cc(N2CCC(N(C)C)CC2)c1 [compound 398]
[1]
  pIC50: 5.62
[2]
  pIC50: 7.15

## Cc1ccc(F)c2cc(C(=O)Nc3cccc(N4CCC(C(C)C)CC4)c3)[nH]c12 [compound 336]
[1]
  pIC50: 5.80
[2]
  pIC50: 6.40

## Cc1cc(CC(=O)N2CCN(C)CC2)cnc1C(NC(=O)c1cc2cccc(C)c2[nH]1)C1CC1 (stereo not shown) [compound 441]
[1]
  pIC50: 5.29
[2]
  pIC50: 5.36

## CC(=O)N1CCCN([C@@H]2CCC[C@@H](NC(=O)c3cc4c(F)ccc(C)c4[nH]3)C2)CC1 [compound 980]
[1]; Homo sapiens
  pIC50: < 5.70
[2]
  pIC50: 6.05

## Cc1cccc2cc(C(=O)NCC3CCCCC3N3CCOCC3)[nH]c12 (stereo not shown) [compound 508]
[1]
  pIC50: 4.82
[2]
  pIC50: 4.98

## CNC(=O)CCCc1cccc(NC(=O)c2cc3c(F)ccc(C)c3[nH]2)c1 [compound 288]
[1]
  pIC50: 6.00
[2]
  pIC50: 6.52

## Cc1ccc(F)c2cc(C(=O)N[C@@H]3CCC[C@H](N4CCN5C(=O)N(C)C[C@H]5C4)C3)[nH]c12 [compound 1126]
[1]; Homo sapiens
  pIC50: 7.10
[2]
  pIC50: 7.70

## COCC(=O)N(C)[C@H]1CCN([C@@H]2CCC[C@@H](NC(=O)c3cc4c(F)ccc(C)c4[nH]3)C2)C1 [compound 1063]
[1]; Homo sapiens
  pIC50: < 5.70
[2]
  pIC50: 5.54

## Cc1ccc(CN2CCOCC2)cc1NC(=O)c1cc2cccc(C)c2[nH]1 [compound 442]
[1]; Homo sapiens
  pIC50: 5.29
[2]
  pIC50: 5.68

## Cc1cc2nccn2nc1C(NC(=O)c1cc2c(F)ccc(C)c2[nH]1)C1CC1 (stereo not shown) [compound 481]
[1]
  pIC50: 5.01
[2]
  pIC50: 5.72

## Cc1ccc(F)c2cc(C(=O)Nc3ccc4cnc(CN5CCN(C)CC5)cc4c3)[nH]c12 [compound 409]
[1]
  pIC50: 5.52
[2]
  pIC50: 7.00

## COCC1(COC)CCN(c2cccc(NC(=O)c3cc4c(F)ccc(C)c4[nH]3)c2)CC1 [compound 173]
[1]; Homo sapiens
  pIC50: 6.52
[2]
  pIC50: 7.15

## Cc1cccc2cc(C(=O)Nc3ccc4cnc(CN5CCN(C)CC5)cc4c3)[nH]c12 [compound 465]
[1]; Homo sapiens
  pIC50: 5.18
[2]
  pIC50: 6.40

## Cc1ccc(N2CCN(C)CC2)cc1NC(=O)c1cc2c(F)ccc(C)c2[nH]1 [compound 407]
[1]
  pIC50: 5.55
[2]
  pIC50: 6.52

## COC1(C)CCN(c2cccc(NC(=O)c3cc4c(F)ccc(C)c4[nH]3)c2)CC1 [compound 262]
[1]; Homo sapiens
  pIC50: 6.15
[2]
  pIC50: 6.70

## Cc1ccc(F)c2cc(C(=O)Nc3cc(N4CCN(C)CC4)n4cncc4c3)[nH]c12 [compound 232]
[1]; Homo sapiens
  pIC50: 6.30
[2]
  pIC50: 7.22

## Cc1cccc2cc(C(=O)Nc3cccc(N4CCN(S(=O)(=O)CCN)CC4)n3)[nH]c12 [compound 443]
[1]; Homo sapiens
  pIC50: 5.29
[2]
  pIC50: 6.22

## Cc1ccc(F)c2cc(C(=O)Nc3cccc(-c4nnc(N)o4)c3)[nH]c12 [compound 319]
[1]; Homo sapiens
  pIC50: 5.85
[2]
  pIC50: 7.00

## Cc1ccc(F)c2cc(C(=O)N[C@@H]3CCC[C@@H](N4CCN5C(=O)CCC[C@@H]5C4)C3)[nH]c12 [compound 1079]
[1]; Homo sapiens
  pIC50: 5.89
[2]
  pIC50: 6.52

## CC(=O)N1CCC2(CCN(c3cc(F)cc(NC(=O)c4cc5c(F)ccc(C)c5[nH]4)c3)CC2)C1 [compound 30]
[1]
  pIC50: 7.15
[2]
  pIC50: 8.10

## COC(=O)N1CCC2(CCN(c3cccc(NC(=O)c4cc5c(F)ccc(C)c5[nH]4)c3)CC2)C1 [compound 127]
[1]; Homo sapiens
  pIC50: 6.52
[2]
  pIC50: 7.40

## Cc1ccc(F)c2cc(C(=O)Nc3cccc4ncccc34)[nH]c12 [compound 238]
[1]
  pIC50: 6.22
[2]
  pIC50: 6.70

## Cc1ccc(F)c2cc(C(=O)Nc3cc(C4CCN(C)CC4)n[nH]3)[nH]c12 [compound 558]
[1]
  pIC50: < 4.60
[2]
  pIC50: < 5.00

## COC(=O)CC(NC(=O)c1cc2cccc(C)c2[nH]1)c1ccccc1F (stereo not shown) [compound 556]
[1]
  pIC50: < 4.60
[2]
  pIC50: 5.00

## CC(=O)N[C@H]1CC[C@H](NC(=O)c2cc3c(F)ccc(C)c3[nH]2)CC1 [compound 512]
[1]
  pIC50: 4.79
[2]
  pIC50: 4.88

## CC(=O)N1CCN(c2cccc(NC(=O)c3cc4c(F)ccc(C)c4[nH]3)c2)CC1CC(C)C (stereo not shown) [compound 193]
[1]; Homo sapiens
  pIC50: 6.40
[2]
  pIC50: 7.00

## Cc1ccc(F)c2cc(C(=O)Nc3cccc(N4CC5CCCNC5C4)c3)[nH]c12 (stereo not shown) [compound 124]
[1]; Homo sapiens
  pIC50: 6.52
[2]
  pIC50: 8.15

## Cc1ccc(F)c2cc(C(=O)NC3CCCC(N4CCC(N(C)C(=O)C(C)(C)O)C4)C3)[nH]c12 (stereo not shown) [compound 1147]
[1]
  pIC50: < 5.70
[2]
  pIC50: 5.92

## Cc1ccc(F)c2cc(C(=O)Nc3cccc(CC(N)=O)c3)[nH]c12 [compound 300]
[1]; Homo sapiens
  pIC50: 5.92
[2]
  pIC50: 6.70

## CC(=O)N1CCN(CC2CCCN(C(=O)c3cc4c(F)ccc(C)c4[nH]3)C2)CC1 (stereo not shown) [compound 877]
[1]; Homo sapiens
  pIC50: < 5.70
[2]
  pIC50: < 5.00

## Cc1ccc(F)c2cc(C(=O)Nc3cc(F)cc(C4CCN5C(=O)CC[C@@H]5C4)c3)[nH]c12 (stereo partly shown) [compound 114]
[1]; Homo sapiens
  pIC50: 6.70
[2]
  pIC50: 7.22

## CC(=O)N1CCN(c2cc(NC(=O)c3cc4c(F)ccc(C)c4[nH]3)ccc2F)CC1 [compound 79]
[1]
  pIC50: 6.70
[2]
  pIC50: 7.15

Source: patent US12116358B2, “Substituted indoles and methods of use thereof” (EPIZYME, INC., priority 2018, dated 2024)
